# Test results reported in patent publication US4946864A, “Novel HMG-CoA reductase inhibitors” (Merck & Co., Inc., priority 1988, dated 1990).
# Target: T1, HMG-CoA reductase (Rattus norvegicus, UniProt P51639)
# T1 construct: from tissue
# T1 sequence (P51639 1-887): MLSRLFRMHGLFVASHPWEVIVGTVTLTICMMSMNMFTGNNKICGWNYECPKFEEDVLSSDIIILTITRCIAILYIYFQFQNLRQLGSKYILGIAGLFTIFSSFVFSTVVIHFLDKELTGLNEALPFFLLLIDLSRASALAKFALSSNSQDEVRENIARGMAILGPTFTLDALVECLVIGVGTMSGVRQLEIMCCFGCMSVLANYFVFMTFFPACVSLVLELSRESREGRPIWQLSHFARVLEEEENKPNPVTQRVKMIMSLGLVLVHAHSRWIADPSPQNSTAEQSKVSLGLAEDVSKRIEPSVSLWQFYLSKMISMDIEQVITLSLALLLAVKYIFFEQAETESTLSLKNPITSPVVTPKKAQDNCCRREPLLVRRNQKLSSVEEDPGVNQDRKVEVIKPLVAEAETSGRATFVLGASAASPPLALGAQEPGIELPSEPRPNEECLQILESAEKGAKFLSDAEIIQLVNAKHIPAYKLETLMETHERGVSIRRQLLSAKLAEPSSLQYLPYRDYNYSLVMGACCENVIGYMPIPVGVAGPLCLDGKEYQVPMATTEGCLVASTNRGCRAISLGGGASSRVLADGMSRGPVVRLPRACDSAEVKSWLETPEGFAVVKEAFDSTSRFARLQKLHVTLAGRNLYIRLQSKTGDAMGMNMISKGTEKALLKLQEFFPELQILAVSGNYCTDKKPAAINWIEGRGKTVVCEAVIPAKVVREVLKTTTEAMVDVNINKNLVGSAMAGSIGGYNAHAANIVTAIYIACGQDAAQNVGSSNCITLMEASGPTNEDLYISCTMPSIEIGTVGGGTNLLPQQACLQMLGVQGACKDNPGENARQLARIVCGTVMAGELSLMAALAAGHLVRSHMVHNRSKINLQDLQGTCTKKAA
# Test: intrinsic HMG-CoA reductase inhibition, in vitro protocol of J. Med. Chem., 28, p. 347-358 (1985)
# Type: biochemical
# Conditions: mevastatin assigned a value of 100; IC50 of test compound compared with that of mevastatin determined simultaneously
# Procedure: The intrinsic HMG-CoA reductase inhibition activity of the claimed compounds is measured in the in vitro protocol published in J. Med. Chem., 28, p. 347-358 (1985). […] Tabulated below for a number of the claimed compounds are relative potencies which are representative of the intrinsic HMG-CoA reductase inhibitory activities of the claimed compounds.
row,Molecule,Relative Potency
1,Cc1ccc(C)c(C(=O)O[C@H]2C[C@@H](C)C=C3C=C[C@H](C)[C@H](CC[C@@H]4C[C@@H](O)CC(=O)O4)[C@H]32)c1,67
2,"6(R)-[2-[8(S)-(2-isopropylbenzoyloxy)-2(S),6(R) -dimethyl-1,2,6,7,8,8a(R)-hexahydronaphthyl-1(S)]ethyl-4(R)-hydroxy-3,4,5,6-tetrahydro-2H-pyran-2-one",173
3,"6(R)-[2-[8(S)-(2-methylbenzoyloxy) -2(S),6(R) -dimethyl-1,2,6,7,8,8a(R) -hexahydronaphthyl-1(S)]ethyl]-4(R)-hydroxy -3,4,5,6-tetrahydro-2H-pyran-2-one",67
4,"6(R)-[2-[8(S)-(2-methylthiobenzoyloxy)-2(S),6(R)-dimethyl-1,2,6,7,8,8a(R)- hexahydronaphthyl-1(S)]ethyl-4(R)-hydroxy-3,4,5,6-tetrahydro-2H-pyran-2-one",54
5,"6(R)-[2-[8(S)-(2-trifluormethyl-benzoyloxy)-2(S),6(R)-dimethyl-1,2,6,7,8,8a(R)-hexa-hydronaphthyl-1(S)]ethyl]-4(R)-hydroxy-3,4,5,6-tetrahydro-2H-pyran-2-one",87
6,"6(R)-[2-[(8(S)-(2-chlorobenzoyloxy)-2-(S),6(R)-dimethyl-1,2,6,7,8,8a(R)-hexahydronaphthyl-1-(S)]ethyl]-4(R)-hydroxy-3,4,5,6-tetahydro-2H pyran-2-one",100
